Values quoted from earlier work as cited in patent publication US10545073B2, “Method and instrument for extracting a component from a sample” (priority 2016, dated 2020).

SMILES	log P
Fc1ccc([C@@H]2CCNC[C@H]2COc2ccc3c(c2)OCO3)cc1 [Paroxetine]	3.89
CNC(=C[N+](=O)[O-])NCCSCc1ccc(CN(C)C)o1 [Ranitidine]	1.23
CC(C)(C)NCC(O)c1ccc(O)c(CO)c1 (stereo not shown) [Salbutamol]	0.01
CN[C@H]1CC[C@@H](c2ccc(Cl)c(Cl)c2)c2ccccc21 [Sertraline]	4.81
